According to article PMC9848300, “Discovery of novel enasidenib analogues targeting inhibition of mutant isocitrate dehydrogenase 2 as antileukaemic agents” (Journal of Enzyme Inhibition and Medicinal Chemistry, 2023):
Read-outs that look alike come from different tables or passages of the source.

Assays:
Format in all cases: cell-based
SNB-75 = assay: NCI 60 antitumor screening (single dose / five doses); settings: Homo sapiens
NCI/ADR-RES = assay: as above; settings: Homo sapiens; for inhibition at 10 µM: read-out: Growth inhibition percentage (GI %)
HCT-116 = assay: as above; settings: Homo sapiens
LOX IMVI = assay: as above; settings: Homo sapiens; for inhibition at 10 µM: read-out: Growth inhibition percentage (GI %)
DU-145 = assay: as above; settings: Homo sapiens
TK-10 = assay: NCI 60 antitumor screening (single dose); settings: Homo sapiens; TK-10 (renal cancer), single dose 10 μM; read-out: Growth inhibition percentage (GI %)
Summary of the method: (§1)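 Values are GI% (100 − G%) from the NCI 60-line single-dose screen, compound at 10 μM.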

A549/ATCC = assay: NCI 60 antitumor screening (single dose); settings: Homo sapiens; A549/ATCC (non-small cell lung cancer), single dose 10 μM; read-out: Growth inhibition percentage (GI %)
Summary of the method: as §1

OVCAR-8 = assay: NCI 60 antitumor screening (single dose); settings: Homo sapiens; OVCAR-8 (ovarian cancer), single dose 10 μM; read-out: Growth inhibition percentage (GI %)
Summary of the method: as §1

NCI-H23 = assay: NCI 60 antitumor screening (single dose); settings: Homo sapiens; NCI-H23 (non-small cell lung cancer), single dose 10 μM; read-out: Growth inhibition percentage (GI %)
Summary of the method: as §1

MCF7 = assay: NCI 60 antitumor screening (single dose); settings: Homo sapiens; MCF7 (breast cancer), single dose 10 μM; read-out: Growth inhibition percentage (GI %)
Summary of the method: as §1

SK-OV-3 = assay: NCI 60 antitumor screening (single dose); settings: Homo sapiens; SK-OV-3 (ovarian cancer), single dose 10 μM; read-out: Growth inhibition percentage (GI %)
Summary of the method: as §1

OVCAR-5 = assay: NCI 60 antitumor screening (single dose); settings: Homo sapiens; OVCAR-5 (ovarian cancer), single dose 10 μM; read-out: Growth inhibition percentage (GI %)
Summary of the method: as §1

HS 578T = assay: NCI 60 antitumor screening (single dose); settings: Homo sapiens; HS 578T (breast cancer), single dose 10 μM; read-out: Growth inhibition percentage (GI %)
Summary of the method: as §1

NCI-H522 = assay: NCI 60 antitumor screening (single dose); settings: Homo sapiens; NCI-H522 (non-small cell lung cancer), single dose 10 μM; read-out: Growth inhibition percentage (GI %)
Summary of the method: as §1

NCI-H322M = assay: NCI 60 antitumor screening (single dose); settings: Homo sapiens; NCI-H322M (non-small cell lung cancer), single dose 10 μM; read-out: Growth inhibition percentage (GI %)
Summary of the method: as §1

PC-3 = assay: NCI 60 antitumor screening (single dose); settings: Homo sapiens; PC-3 (prostate cancer), single dose 10 μM; read-out: Growth inhibition percentage (GI %)
Summary of the method: as §1

CAKI-1 = assay: NCI 60 antitumor screening (single dose); settings: Homo sapiens; CAKI-1 (renal cancer), single dose 10 μM; read-out: Growth inhibition percentage (GI %)
Summary of the method: as §1

NCI-H226 = assay: NCI 60 antitumor screening (single dose); settings: Homo sapiens; NCI-H226 (non-small cell lung cancer), single dose 10 μM; read-out: Growth inhibition percentage (GI %)
Summary of the method: as §1

OVCAR-4 = assay: NCI 60 antitumor screening (single dose); settings: Homo sapiens; OVCAR-4 (ovarian cancer), single dose 10 μM; read-out: Growth inhibition percentage (GI %)
Summary of the method: as §1

M14 = assay: NCI 60 antitumor screening (single dose); settings: Homo sapiens; M14 (melanoma), single dose 10 μM; read-out: Growth inhibition percentage (GI %)
Summary of the method: as §1

HCC-2998 = assay: NCI 60 antitumor screening (single dose); settings: Homo sapiens; HCC-2998 (colon cancer), single dose 10 μM; read-out: Growth inhibition percentage (GI %)
Summary of the method: as §1

KM 12 = assay: NCI 60 antitumor screening (single dose); settings: Homo sapiens, KM12; KM 12 (colon cancer), single dose 10 μM; read-out: Growth inhibition percentage (GI %)
Summary of the method: as §1

SNB-19 = assay: NCI 60 antitumor screening (single dose); settings: Homo sapiens; SNB-19 (CNS cancer), single dose 10 μM; read-out: Growth inhibition percentage (GI %)
Summary of the method: as §1

U251 = assay: NCI 60 antitumor screening (single dose); settings: Homo sapiens, U-251; U251 (CNS cancer), single dose 10 μM; read-out: Growth inhibition percentage (GI %)
Summary of the method: as §1

HOP-62 = assay: NCI 60 antitumor screening (single dose); settings: Homo sapiens; HOP-62 (non-small cell lung cancer), single dose 10 μM; read-out: Growth inhibition percentage (GI %)
Summary of the method: as §1

T-47D = assay: NCI 60 antitumor screening (single dose / five doses); settings: Homo sapiens, T47D; for inhibition at 10 µM: read-out: Growth inhibition percentage (GI %)
BT-549 = assay: as above; settings: Homo sapiens
[1] = SNB-75 (CNS cancer), single dose 10 μM, read-out: Growth inhibition percentage (GI %)
[2] = NCI/ADR-RES (ovarian cancer), single dose 10 μM
[3] = HCT-116 (colon cancer), single dose 10 μM, read-out: Growth inhibition percentage (GI %)
[4] = LOX IMVI (melanoma), single dose 10 μM
[5] = DU-145 (prostate cancer), single dose 10 μM, read-out: Growth inhibition percentage (GI %)
[6] = T-47D (breast cancer), single dose 10 μM
[7] = BT-549 (breast cancer), single dose 10 μM, read-out: Growth inhibition percentage (GI %)

Structure (SMILES) | inhibition at 10 µM (TK-10) [%] | inhibition at 10 µM (A549/ATCC) [%] | inhibition at 10 µM (OVCAR-8) [%] | inhibition at 10 µM (NCI-H23) [%] | inhibition at 10 µM (MCF7) [%] | inhibition at 10 µM (SK-OV-3) [%] | inhibition at 10 µM (OVCAR-5) [%] | inhibition at 10 µM (HS 578T) [%] | inhibition at 10 µM (NCI-H522) [%] | inhibition at 10 µM (NCI-H322M) [%] | inhibition at 10 µM (PC-3) [%] | inhibition at 10 µM (CAKI-1) [%] | inhibition at 10 µM (NCI-H226) [%] | inhibition at 10 µM (OVCAR-4) [%] | inhibition at 10 µM (M14) [%] | inhibition at 10 µM (HCC-2998) [%] | inhibition at 10 µM (KM 12) [%] | inhibition at 10 µM (SNB-19) [%] | inhibition at 10 µM (U251) [%] | inhibition at 10 µM (HOP-62) [%] | other results
Clc1cccc(/C=N/Nc2nc(N/N=C/c3cccc(Cl)c3)nc(N3CCCCC3)n2)c1 [compound 7d, 2,4-Bis[(E)-2-[(3-Chlorophenyl)methylidene]hydrazin-1-yl]-6-(piperidin-1-yl)-1,3,5-triazine] | -6.48 | 13.7 | 10.8 | 2.24 | 16.9 | -9.25 | -10.4 | -4.65 | 11.7 | -1.33 | 24 | 7.63 | 18 | 9.83 | 4.75 | -8.18 | 8.95 | 1.37 | 8.35 | -4.1 | inhibition at 10 µM (SNB-75; [1]): -2.48%; inhibition at 10 µM (NCI/ADR-RES; [2]): 4.8%; inhibition at 10 µM (HCT-116; [3]): 2.75%; inhibition at 10 µM (LOX IMVI; [4]): -4.97%; inhibition at 10 µM (DU-145; [5]): 5.38%; inhibition at 10 µM (T-47D; [6]): 24%; inhibition at 10 µM (BT-549; [7]): 5.13%
O=[N+]([O-])c1cccc(/C=N/Nc2nc(N/N=C/c3cccc([N+](=O)[O-])c3)nc(N3CCCCC3)n2)c1 [compound 7f, 2,4-Bis[(E)-2-[(3-Nitrophenyl)methylidene]hydrazin-1-yl]-6-(piperidin-1-yl)-1,3,5-triazine] | -9.28 | 39.3 | 48.9 | 37.8 | 38.7 | -14.3 | -13 | 20.8 | 58.1 | 13.8 | 51.4 | 27.6 | 42.6 | 32.3 | 41.2 | 5.6 | 35.2 | 11.5 | 28.6 | 41.5 | inhibition at 10 µM (SNB-75; SNB-75, read-out: Growth inhibition percentage (GI %)): -0.71%; inhibition at 10 µM (NCI/ADR-RES; NCI/ADR-RES): 32.8%; inhibition at 10 µM (HCT-116; HCT-116, read-out: Growth inhibition percentage (GI %)): 47%; inhibition at 10 µM (LOX IMVI; LOX IMVI): 49.1%; inhibition at 10 µM (DU-145; DU-145, read-out: Growth inhibition percentage (GI %)): 29.8%; inhibition at 10 µM (T-47D): 47.5%; inhibition at 10 µM (BT-549; BT-549, read-out: Growth inhibition percentage (GI %)): 28.2%
CN(C)c1ccc(/C=N/Nc2nc(N/N=C/c3ccc(N(C)C)cc3)nc(N3CCCCC3)n2)cc1 [compound 7g, 4-[(1e)-(2-{4-[(E)-2-{[4-(dimethylamino)phenyl]methylidene}chydrazin-1-yl]-6-(piperidin-1-yl)-1,3,5-triazin-2-yl}hydrazin-1-ylidene)methyl]-N,N-dimethylaniline] | -18.4 | 21.6 | 43.4 | 3.27 | 68.9 | -31.8 | 3.87 | -6.05 | 3.84 | -0.12 | 15.2 | 10.1 | -1.93 | -6.05 | 27.2 | -3.1 | 6.98 | 13.9 | 50 | 18.2 | inhibition at 10 µM (SNB-75; [1]): -1.39%; GI50 (SNB-75; SNB-75, five doses (0.01–100 μM), read-out: GI50): 2800 nM; inhibition at 10 µM (NCI/ADR-RES; [2]): 41.7%; GI50 (NCI/ADR-RES; NCI/ADR-RES, five doses (0.01–100 μM), read-out: GI50): 3190 nM; inhibition at 10 µM (HCT-116; [3]): 85.1%; GI50 (HCT-116; HCT-116, five doses (0.01–100 μM), read-out: GI50): 1640 nM; inhibition at 10 µM (LOX IMVI; [4]): 173%; GI50 (LOX IMVI; LOX IMVI, five doses (0.01–100 μM), read-out: GI50): 1610 nM; inhibition at 10 µM (DU-145; [5]): 22.5%; GI50 (DU-145; DU-145, five doses (0.01–100 μM), read-out: GI50): 3920 nM; inhibition at 10 µM (T-47D; [6]): 54%; GI50 (T-47D; T-47D, five doses (0.01–100 μM), read-out: GI50): 2180 nM; inhibition at 10 µM (BT-549; [7]): -10.6%; GI50 (BT-549; BT-549, five doses (0.01–100 μM), read-out: GI50): 1550 nM
